We go through 1 compound from patent US20080221109A1, “PESTICIDAL SUBSTITUTED THIOETHERS” (priority 2005, published 2008).

In general, melting point refers to the temperature, or range, at which the solid turns liquid.

`O=C1CCCCC1Sc1ncccn1` (stereo not shown) [Compound 03-43, 2-(Pyrimidin-2-ylsulfanyl)-cyclohexanone]: the melting point was 51 °C.
